Data published in paper PMC6101487 (2018).

How the values were obtained:
Experiment in all cases: fluorescence scan of RNA array
Settings in all cases: 6 mM MgCl2, 20 mM NaCl; 40 mM Tris pH 7.8, 20 °C, 16 h; 20 μM malachite green
[1] = tested on: MGsa (malachite green aptamer–streptavidin aptamer conjugate) (RNA, aptamer) GGAUCCCGACUGGCGAGAGCCAGGUAACGAAUGGAUCCACACACACACACACACACACGCAUGCAUACCGACCAGAAUCAUGCAAGUGCGUAAGAUAGUCGCGGGCCGGGAUGCAUGC
[2] = tested on: MicAsa (RNA, other) GGGGAAAGACGCGCAUUUGUUAUCAUCAUCCCUGAAUUCAGAGAUGAAAUUUUGGCCACUCACGAGUGGCCUUUUACACACACACACACACACACGCAUGCAUACCGACCAGAAUCAUGCAAGUGCGUAAGAUAGUCGCGGGCCGGGAUGCAUGC
[3] = tested on: DsrAsa (RNA, other) GGGAACACAUCAGAUUUCCUGGUGUAACGAAUUUUUUAAGUGCUUCUUGCUUAAGCAAGUUUCAUCCCGACCCCCUCAGGGUCGGGAUUUUUUUUUUUUUUUUUUUUUUAGAGACCGACCAGAAUCAUGCAAGUGCGUAAGAUAGUCGCGGGCCGGGCUCUA
[4] = tested on: RprAsa (RNA, other) GGGACGGUUAUAAAUCAACAUAUUGAUUUAUAAGCAUGGAAAUCCCCUGAGUGAAACAACGAAUUGCUGUGUGUAGUCUUUGCCCAUCUCCCACGAUGGGCUUUUUUUUUUUUUUUUUUUUUUUUUUGUGUGACCGACCAGAAUCAUGCAAGUGCGUAAGAUAGUCGCGGGCCGGGCACAC
[5] = tested on: ompAsa (RNA, mRNA element) GGGCCAGGGGUGCUCGGCAUAAGCCGAAGAUAUCGGUAGAGUUAAUAUUGAGCAGAUCCCCCGGUGAAGGAUUUAACCGUGUUAUCUCGUUGGAGAUAUUCAUGGCGUAUUUUGGAUGAUAACGAGGCGCAAAAAAUGAAAAAGACAGCUAUCGCGAUUGCAGUGGCAAAUAAUAAUAAUAAUAAUAAUAUGCAUGCACCGACCAGAAUCAUGCAAGUGCGUAAGAUAGUCGCGGGCCGGGGCAUGCAU
[6] = tested on: rpoSsa (RNA, mRNA element) GGGUUCUGAGUCUUCGGGUGAACAGAGUGCUAACAAAAUGUUGCCGAACAACAAGCCAACUGCGACCACGGUCACAGCGCCUGUAACGGUACCAACAGCAAGCACAACCGAGCCGACUGUCAGCAGUACAUCAACCAGUACGCCUAUCUCCACCUGGACCUGGCCGACUGAGGGCAAAGUGAUCGAAACCUUUGGCGCUUCUGAGGGGGGCAACAAGGGGAUUGAUAUCGCAGGCAGCAAAGGACAGGCAAUUAUCGCGACCGCAGAUGGCCGCGUUGUUUAUGCUGGUAACGCGCUGCGCGGCUACGGUAAUCUGAUUAUCAUCAAACAUAAUGAUGAUUACCUGAGUGCCUACGCCCAUAACGACACAAUGCUGGUCCGGGAACAACAAGAAGUUAAGGCGGGGCAAAAAAUAGCGACCAUGGGUAGCACCGGAACCAGUUCAACACGCUUGCAUUUUGAAAUUCGUUACAAGGGGAAAUCCGUAAACCCGCUGCGUUAUUUGCCGCAGCGAUAAAUCGGCGGAACCAGGCUUUUGCUUGAAUGUUCCGUCAAGGGAUCACGGGUAGGAGCCACCUUAUGAGUCAGAUUUUUUUUUUUUUUUUUUAUGCAUGCACCGACCAGAAUCAUGCAAGUGCGUAAGAUAGUCGCGGGCCGGGGCAUGCAU

## CN(C)c1ccc(C(=C2C=CC(=[N+](C)C)C=C2)c2ccccc2)cc1
[1]
  binding: yes
[2]
  binding: no
[3]
  binding: no
[4]
  binding: no
[5]
  binding: no
[6]
  binding: no
